The record followed here is ChEMBL document CHEMBL1158434, “Discovery of a potent and brain penetrant mGluR5 positive allosteric modulator” (Bioorg Med Chem Lett, 2009).

SMILES strings stand for the structures. Converted amounts (≈) assume the structure as drawn. The source made the active and inactive calls. The rule behind the calls is not given here.

Series [1] deals with T1, Metabotropic glutamate receptor 5 (Homo sapiens, UniProt P41594). Description: Agonist activity at human mGluR5 transiently transfected in BHK cells assessed as potentiation of L-glutamate-induced calcium flux by FLIPR assay. It counts as functional, cell-based. In general terms: A change in cytosolic calcium serves as a functional read-out for many receptors and channels.
Target sequence in this assay (P41594 whole entry): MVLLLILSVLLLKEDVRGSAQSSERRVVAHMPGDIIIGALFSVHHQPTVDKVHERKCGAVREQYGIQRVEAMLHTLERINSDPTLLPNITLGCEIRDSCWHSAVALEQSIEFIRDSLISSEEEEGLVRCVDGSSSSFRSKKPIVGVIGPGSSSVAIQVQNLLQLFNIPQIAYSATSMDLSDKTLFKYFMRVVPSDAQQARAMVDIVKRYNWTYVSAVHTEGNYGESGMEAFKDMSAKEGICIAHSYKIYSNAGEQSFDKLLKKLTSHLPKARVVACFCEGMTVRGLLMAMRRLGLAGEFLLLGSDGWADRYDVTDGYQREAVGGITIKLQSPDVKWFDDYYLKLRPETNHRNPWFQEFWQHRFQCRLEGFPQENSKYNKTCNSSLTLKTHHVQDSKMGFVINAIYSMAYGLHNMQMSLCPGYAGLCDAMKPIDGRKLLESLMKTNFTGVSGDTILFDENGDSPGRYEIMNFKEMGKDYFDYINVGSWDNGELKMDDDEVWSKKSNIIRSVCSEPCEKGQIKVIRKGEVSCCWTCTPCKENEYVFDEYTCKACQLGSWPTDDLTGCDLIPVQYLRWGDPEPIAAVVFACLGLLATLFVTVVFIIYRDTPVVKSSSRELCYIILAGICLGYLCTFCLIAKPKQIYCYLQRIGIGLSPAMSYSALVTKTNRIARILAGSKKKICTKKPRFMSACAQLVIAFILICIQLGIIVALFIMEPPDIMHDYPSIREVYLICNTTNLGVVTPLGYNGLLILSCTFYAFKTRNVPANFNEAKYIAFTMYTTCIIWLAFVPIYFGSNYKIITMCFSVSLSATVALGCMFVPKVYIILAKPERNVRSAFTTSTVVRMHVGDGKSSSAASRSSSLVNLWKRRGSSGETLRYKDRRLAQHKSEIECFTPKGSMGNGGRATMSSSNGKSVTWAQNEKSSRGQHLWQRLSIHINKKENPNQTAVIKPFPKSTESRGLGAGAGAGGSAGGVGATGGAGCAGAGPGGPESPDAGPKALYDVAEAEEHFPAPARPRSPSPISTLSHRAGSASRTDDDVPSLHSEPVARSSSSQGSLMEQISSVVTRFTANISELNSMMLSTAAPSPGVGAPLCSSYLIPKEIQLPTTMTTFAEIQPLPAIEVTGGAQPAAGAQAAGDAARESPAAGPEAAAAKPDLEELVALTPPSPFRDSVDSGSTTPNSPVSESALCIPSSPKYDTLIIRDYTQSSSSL

The target of series [2] is T1, Metabotropic glutamate receptor 5. In words: Agonist activity at human mGluR5 transiently transfected in BHK cells assessed as potentiation of L-glutamate-induced calcium flux at 10 uM by FLIPR assay.
Target sequence in this assay (P41594 whole entry): as above
Series [3] has the same target. In words: Displacement of [3H]quisqualic acid from human recombinant mGluR5 expressed in BHK cells by radioligand binding assay. It counts as cell-based. (In general: In a radioligand displacement assay an active substance lowers the binding of a labelled ligand.)
Target sequence in this assay (P41594 21-1212 limits assumed): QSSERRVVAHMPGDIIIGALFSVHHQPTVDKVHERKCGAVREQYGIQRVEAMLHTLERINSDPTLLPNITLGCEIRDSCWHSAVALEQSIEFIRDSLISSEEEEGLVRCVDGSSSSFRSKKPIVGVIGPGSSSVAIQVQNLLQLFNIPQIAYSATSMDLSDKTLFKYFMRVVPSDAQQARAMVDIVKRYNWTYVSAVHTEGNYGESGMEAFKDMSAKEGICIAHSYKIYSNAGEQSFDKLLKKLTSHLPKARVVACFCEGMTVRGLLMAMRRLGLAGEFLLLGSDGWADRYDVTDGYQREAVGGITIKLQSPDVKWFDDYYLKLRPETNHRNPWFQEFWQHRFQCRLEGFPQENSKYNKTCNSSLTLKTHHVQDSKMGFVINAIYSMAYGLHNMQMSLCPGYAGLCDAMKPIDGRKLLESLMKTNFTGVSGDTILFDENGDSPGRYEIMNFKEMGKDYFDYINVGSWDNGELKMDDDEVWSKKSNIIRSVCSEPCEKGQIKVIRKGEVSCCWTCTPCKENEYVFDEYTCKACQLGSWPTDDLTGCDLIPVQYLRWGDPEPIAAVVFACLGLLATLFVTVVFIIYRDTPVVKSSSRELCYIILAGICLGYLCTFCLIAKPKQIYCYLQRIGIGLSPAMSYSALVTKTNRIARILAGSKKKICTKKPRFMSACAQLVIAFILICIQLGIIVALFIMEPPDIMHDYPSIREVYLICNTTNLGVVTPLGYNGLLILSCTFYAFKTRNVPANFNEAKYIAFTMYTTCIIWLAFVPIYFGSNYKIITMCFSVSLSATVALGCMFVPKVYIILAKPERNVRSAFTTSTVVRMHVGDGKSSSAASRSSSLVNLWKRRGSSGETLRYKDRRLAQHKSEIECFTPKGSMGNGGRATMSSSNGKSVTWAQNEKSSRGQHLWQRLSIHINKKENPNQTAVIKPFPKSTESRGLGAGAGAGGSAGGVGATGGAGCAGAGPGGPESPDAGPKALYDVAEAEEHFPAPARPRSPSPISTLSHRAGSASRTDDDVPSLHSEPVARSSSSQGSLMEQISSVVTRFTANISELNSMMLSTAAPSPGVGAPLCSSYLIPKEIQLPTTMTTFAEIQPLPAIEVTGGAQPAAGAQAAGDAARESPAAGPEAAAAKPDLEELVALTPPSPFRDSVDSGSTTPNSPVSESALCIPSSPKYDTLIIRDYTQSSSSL
The target is the same in series [4]. In words: Potentiation of [3H]quisqualic acid binding to human recombinant mGluR5 expressed in BHK cells at >1 uM by radioligand binding assay. The class given is cell-based.
Target sequence in this assay (P41594 21-1212 limits assumed): as above
For series [5] the target is unchanged. Description: Displacement of [3H]MPEP from human recombinant mGluR5 expressed in BHK cells at by radioligand binding assay. The class given is cell-based.
Target sequence in this assay (P41594 whole entry): as the sequence (P41594 whole entry) above
The target is the same in series [6]. Description: Activity at human mGluR5 transiently transfected in BHK cells assessed as decrease in maximum response of L-glutamate for calcium flux at 0.60 uM by FLIPR assay. It counts as functional, cell-based.
Target sequence in this assay (P41594 21-1212 limits assumed): as the sequence (P41594 21-1212 limits assumed) above
Series [7] addresses Metabotropic glutamate receptor 1 (Homo sapiens) (UniProt Q13255). In words: Agonist activity at mGluR1 at 10 uM. The class given is functional.
For series [8] the target is unchanged. In words: Antagonist activity at mGluR1 at 10 uM. It counts as functional.
The target is the same in series [9]. Description: Allosteric modulation of mGluR1 at 10 uM.
A short description of series [10]: Aqueous solubility at pH 7.4. The class given is physicochemical. The following applies: aqueous medium.
Series [11] in a line: Ratio of drug level in brain to plasma in C57/6J mouse at 5 mg/kg, po by turboflow chromatography. It counts as ADME, organism-based. Further details: dose 5 mg/kg, route oral. Particulars: brain and plasma.
A short description of series [12]: Ratio of drug level in brain to plasma in Lister Hooded rat at 2.5 mg/kg, po by turboflow chromatography. It counts as ADME, organism-based. Further details: dose 2.5 mg/kg, route oral. The following applies: brain and plasma.
Series [13] is described as follows: Elimination half life in C57/6J mouse at 5 mg/kg, po. The class given is ADME, organism-based. Further details: dose 5 mg/kg, route oral. Particulars: in vivo, read-out: beta t1/2 (converted).
Series [14] in a line: Elimination half life in Lister Hooded rat at 2.5 mg/kg, po. The class given is ADME, organism-based. Further details: dose 2.5 mg/kg, route oral. Particulars: in vivo, read-out: beta t1/2 (converted).
The target in series [15] is T1, Metabotropic glutamate receptor 5. Description: Agonist activity at human mGluR5 transiently transfected in BHK cells assessed as potentiation of L-glutamate-induced calcium flux at 100 nM by FLIPR assay. The class given is functional, cell-based.
Target sequence in this assay (P41594 21-1212 limits assumed): as above
The target is the same in series [16]. In words: Agonist activity at human mGluR5 transiently transfected in BHK cells assessed as potentiation of L-glutamate-induced calcium flux at 1000 nM by FLIPR assay. It counts as functional, cell-based.
Target sequence in this assay (P41594 21-1212 limits assumed): as above
Series [17] shares this target. In words: Agonist activity at human mGluR5 transiently transfected in BHK cells assessed as 5.5 fold decrease in L-glutamate EC50 for induction of calcium flux at 1 uM by FLIPR assay.
Target sequence in this assay (P41594 21-1212 limits assumed): as above
Series [18] shares this target. In words: Agonist activity at human mGluR5 transiently transfected in BHK cells assessed as potentiation of L-glutamate-induced calcium flux by FLIPR assay relative to L-glutamate. It counts as functional, cell-based.

Chain of Metabotropic glutamate receptor 1 (Homo sapiens) (Q13255 19-1194 limits assumed): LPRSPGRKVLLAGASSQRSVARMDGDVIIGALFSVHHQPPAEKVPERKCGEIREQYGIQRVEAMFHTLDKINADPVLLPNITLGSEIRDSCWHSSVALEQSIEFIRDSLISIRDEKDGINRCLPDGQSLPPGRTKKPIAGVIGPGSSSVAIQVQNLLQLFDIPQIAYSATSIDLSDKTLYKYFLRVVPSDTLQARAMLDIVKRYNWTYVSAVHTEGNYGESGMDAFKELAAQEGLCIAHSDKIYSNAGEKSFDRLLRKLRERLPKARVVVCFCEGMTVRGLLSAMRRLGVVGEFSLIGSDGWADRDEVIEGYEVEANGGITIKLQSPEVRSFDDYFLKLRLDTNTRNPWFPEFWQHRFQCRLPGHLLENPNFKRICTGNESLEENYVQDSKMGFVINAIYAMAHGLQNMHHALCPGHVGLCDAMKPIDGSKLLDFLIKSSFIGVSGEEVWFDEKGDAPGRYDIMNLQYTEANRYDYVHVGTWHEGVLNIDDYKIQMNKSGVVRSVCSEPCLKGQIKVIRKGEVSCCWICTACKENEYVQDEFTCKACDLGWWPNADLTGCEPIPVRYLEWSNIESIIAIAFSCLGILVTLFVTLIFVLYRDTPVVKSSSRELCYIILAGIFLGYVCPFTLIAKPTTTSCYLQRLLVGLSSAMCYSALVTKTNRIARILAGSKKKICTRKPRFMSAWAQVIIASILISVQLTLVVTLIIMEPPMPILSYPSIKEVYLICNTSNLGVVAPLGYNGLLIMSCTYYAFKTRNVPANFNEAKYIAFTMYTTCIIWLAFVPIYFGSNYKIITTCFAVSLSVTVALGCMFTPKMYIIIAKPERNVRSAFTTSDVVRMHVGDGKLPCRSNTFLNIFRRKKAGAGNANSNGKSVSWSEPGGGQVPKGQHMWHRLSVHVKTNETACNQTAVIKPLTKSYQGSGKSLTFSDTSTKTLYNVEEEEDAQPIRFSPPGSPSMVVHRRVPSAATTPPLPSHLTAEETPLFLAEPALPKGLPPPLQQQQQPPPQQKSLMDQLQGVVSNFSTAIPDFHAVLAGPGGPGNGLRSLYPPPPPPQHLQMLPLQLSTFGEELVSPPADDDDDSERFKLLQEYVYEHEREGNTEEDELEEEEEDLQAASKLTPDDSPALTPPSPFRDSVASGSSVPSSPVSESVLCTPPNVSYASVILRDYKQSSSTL

Usually EC50 stands for the midpoint of the concentration-response curve. In the case of `CC1CCN(C(=O)c2ccc(C#Cc3ccccc3)cc2)CC1`, in series [1], the concentration giving a half-maximal response (EC50) turned out to be 720 nM. For `CCOC(=O)c1ccc(C#Cc2ccccc2)nc1`, the EC50 entry in series [2] is reported as “Not Active”. In the case of `O=C(c1ccc(C#Cc2ccccc2)nc1)N1CCSCC1`, in [1], the 50% effective concentration (EC50) was 46 nM. For `CN1CCN(C(=O)c2ccc(C#Cc3ccccc3)cc2)CC1`, the EC50 in series [1] worked out at 3100 nM. For the compound `CC1CCC(NC(=O)c2ccc(C#Cc3ccccc3)nc2)CC1` (stereo not drawn), in [1], the EC50 is 1200 nM.

As for `CC1CCN(C(=O)c2ccc(C#Cc3ccccc3)nc2)CC1`, in series [1], the EC50 was determined as 130 nM.

With `O=C(NC1CCCCC1)c1ccc(C#Cc2ccccc2)nc1`, the EC50 in [1] came out at 240 nM. With `CN1CCN(C(=O)c2ccc(C#Cc3ccccc3)nc2)CC1`, the EC50 in series [1] was 1600 nM.

In the case of `O=C(NCc1ccsc1)c1ccc(C#Cc2ccccc2)nc1`, in [1], the EC50 came out at 140 nM. In the case of `CC(C)CCNC(=O)c1ccc(C#Cc2ccccc2)nc1`, the EC50 in series [1] came to 510 nM. By Ki is commonly meant a measure of affinity in units of concentration, obtained from inhibition or displacement. Usually solubility stands for the concentration that dissolves in the medium under given conditions. Lower therefore signals a poorly soluble substance. Broadly, the Kp is the ratio of the level in a tissue or fluid to that in plasma or blood. In the case of `O=C(NC1CCCC1)c1ccc(C#Cc2ccccc2)nc1`, the EC50 in series [1] came out at 30 nM. Besides, the outcome in series [3], in series [7], in series [8] and in series [9] was inactive. Besides, in series [4], the Activity amounted to 30%. Further, the Ki in series [5] came to 1800 nM. Also, the result in [6], in [15], in [16] and in series [17] was Active. In addition, the concentration in solution in [10] (solubility) was 1.7 µM (≈ 0.494 µg/mL). In addition, the concentration ratio (Kp) in [11] was determined as 0.5; in [12], 0.3. For the same compound, the half-life is 1 h in [13] and 4 h in series [14]. For `NC(=O)c1ccc(C#Cc2ccccc2)nc1`, the EC50 in series [1] amounted to 6600 nM.

On to `O=C(NCc1ccsc1)c1ccc(C#Cc2ccccc2)cc1`, for which the 50% effective concentration (EC50) in [1] is 1200 nM. As for `O=C(c1ccc(C#Cc2ccccc2)nc1)N1CCOCC1`, the EC50 in series [1] amounted to 990 nM. On to `C(#Cc1ccc(C(N2CCOCC2)N2CCOCC2)cc1)c1ccccc1`, for which the EC50 in series [1] turned out to be 970 nM. The Activity in series [18] was 73%. In the case of `O=C(NCc1ccco1)c1ccc(C#Cc2ccccc2)nc1`, in series [1], the EC50 was 180 nM. Still for that read-out and setting: under `O=C(c1ccc(C#Cc2ccccc2)nc1)N1CCCCC1` stands 280 nM.
